ChEMBL document CHEMBL1153569, “Development of QSAR models for predicting hepatocarcinogenic toxicity of chemicals” (Eur J Med Chem, 2009)

Organism: Mus musculus
Test: Hepatotoxicity in mouse assessed as carcinogenic potency
Details: in vivo

| Structure (SMILES) | pTD50 |
| --- | --- |
| CC(Cl)(Cl)Cl [TRICHLOROETHANE] | 3.38 |
| CCCN(CCC)c1c([N+](=O)[O-])cc(C(F)(F)F)cc1[N+](=O)[O-] [TRIFLURALIN] | 2.96 |
| Clc1cc2c(cc1Cl)Oc1cc(Cl)c(Cl)cc1O2 [2,3,7,8-TETRACHLORODIBENZO-P-DIOXIN] | 8.867 |
| ClCC(Cl)(Cl)Cl | 2.419 |
| C=CC=C [BUTADIENE] | 3.091 |
| C=C(Cl)CSC(=S)N(CC)CC [SULFALLATE] | 3.32 |
| C=CC(=C)Cl [CHLOROPRENE] | 3.689 |
| ClC(Cl)=C(c1ccc(Cl)cc1)c1ccc(Cl)cc1 [DICHLORODIPHENYLDICHLOROETHYLENE] | 4.492 |
| ClCCl [METHYLENE CHLORIDE] | 1.581 |
| Cc1ccc(Cl)cc1N | 2.77 |
| Nc1cc(Cl)c(N)c(Cl)c1 | 1.941 |
| C=C(C)[C@H]1CC=C(C)CC1 [D-LIMONENE] | 1.113 |
| Nc1cccc2c(N)cccc12 | 3.14 |
| Nc1ccc(Cl)cc1N | 1.73 |
| ClCC(Cl)CCl [1,2,3-TRICHLOROPROPANE] | 4.041 |
| O=[N+]([O-])c1ccc(Oc2ccc(Cl)cc2Cl)cc1 [NITROFEN] | 3.203 |
| CCOC(=O)C(O)(c1ccc(Cl)cc1)c1ccc(Cl)cc1 [CHLOROBENZILATE] | 2.862 |
| ClC(Cl)Br [BROMODICHLOROMETHANE] | 3.056 |
| Nc1ccc(Cl)c(N)c1 | 1.9 |
| S=C1NCCN1 [ETHYLENE THIOUREA] | 3.341 |
| O=NN(O)c1ccccc1 [CUPFERRON] | 2.439 |
| Nc1ccc2c(c1)C(=O)c1ccccc1C2=O | 2.185 |
| O=[N+]([O-])c1ccc2c3c(cccc13)CC2 | 3.638 |
| COc1ccc(C)cc1N | 2.639 |
| C1CCOC1 [TETRAHYDROFURAN] | 1.233 |
| Cc1ccc(N)cc1N | 3.66 |
| Nc1ccc(Oc2ccc(N)cc2)cc1 | 2.9 |

| Structure (SMILES) | pTD50 |
| --- | --- |
| ClC(Cl)=C(Cl)Cl [TETRACHLOROETHYLENE] | 3.1 |
| ClC(Cl)C(Cl)Cl [1,1,2,2-TETRACHLOROETHANE] | 3.63 |
| NC(=S)NNC(N)=S | 1.423 |
| Nc1cc(Cl)cc(C(=O)O)c1Cl [CHLORAMBEN] | 1.607 |
| FC(F)=C(F)F [TETRAFLUOROETHYLENE] | 2.907 |
| CNc1ccc(N(CCO)CCO)cc1[N+](=O)[O-] [HC BLUE NO. 1] | 2.953 |
| ClC=C(Cl)Cl [TRICHLOROETHYLENE] | 2.16 |
| Nc1ccccc1C(=O)OC/C=C/c1ccccc1 [CINNAMYL ANTHRANILATE] | 1.529 |
| Nc1ccc(Sc2ccc(N)cc2)cc1 [4,4'-THIODIANILINE] | 3.809 |
| CN(C)c1ccc(C(=O)c2ccc(N(C)C)cc2)cc1 [MICHLER'S KETONE] | 3.383 |
| ClC(Cl)Cl [CHLOROFORM] | 3.361 |
| O=C1C2(Cl)C3(Cl)C4(Cl)C(Cl)(Cl)C5(Cl)C3(Cl)C1(Cl)C5(Cl)C24Cl (centres undefined) [KEPONE] | 5.662 |
| O=C(O)c1cc(/N=N/c2ccc(S(=O)(=O)Nc3ccccn3)cc2)ccc1O [SULFASALAZINE] | 1.866 |
| Cc1ccc([N+](=O)[O-])cc1N | 2.74 |
| COc1ccc([N+](=O)[O-])cc1N | 1.93 |
| ClC(Cl)(Cl)C(Cl)(Cl)Cl [HEXACHLOROETHANE] | 2.683 |
| ClC(Cl)C(Cl)(Cl)Cl [PENTACHLOROETHANE] | 3.39 |
| Cc1cc(C)c(N)cc1C | 4.344 |
| Clc1ccc(Cl)cc1 [1,4-DICHLOROBENZENE] | 2.328 |
| CCCl [ETHYL CHLORIDE] | 0.93 |
| CCc1ccc(C(c2ccc(CC)cc2)C(Cl)Cl)cc1 | 1.988 |
| C1COCCO1 [DIOXANE] | 1.883 |
| c1ccc(NNc2ccccc2)cc1 [HYDRAZOBENZENE] | 3.793 |
| O=C1NC(=O)C(c2ccccc2)(c2ccccc2)N1 [PHENYTOIN] | 3.18 |
| Cc1noc(NS(=O)(=O)c2ccc(N)cc2)c1C [SULFISOXAZOLE] | 2.004 |
| O=[N+]([O-])c1ccc2[nH]cnc2c1 | 2.458 |
| Nc1c(Br)cc(Br)c2c1C(=O)c1ccccc1C2=O [1-AMINO-2,4-DIBROMOANTHRA-QUINONE] | 2.313 |
